Experimental data taken from patent publication US20050267066A1, “Pharmaceutical composition comprising a CDK inhibitor and gemcitabine” (Cyclacel Limited, priority 2002, published 2005).
Read-outs that look alike come from different tables or passages of the source.

What was measured:
[1] = tested on: breast tumor cells (MDA-435); experiment: MTT assay, 24 hour pre-exposure to roscovitine followed by 24 hour exposure to gemcitabine; type: cell-based; settings: 24 h roscovitine then 24 h gemcitabine
[2] = tested on: human prostrate tumor cells; settings: concurrent exposure
Procedure: The MTT assay is a spectrophotometric assay based on the ability of viable cells to convert MTT to formazan. Cell concentrations were estimated by measuring absorbance at test wavelength of 570 nm and a reference wavelength of 630 nm. An automated procedure was utilized to determine the IC50 value (concentration of drug which inhibits cell growth by 50% of the control) of all agents used in these studies.
After the initial IC50 analysis was complete, the combinations were then tested. For the combination studies, the concentration (expressed as a percent of the individual agent's IC50) schema used to characterise the type of interaction is shown below:
If the majority of (≧3 of 5) of the values are statistically above or below the line (endpoints) then antagonism or synergy is described, respectively. Otherwise, the pattern is more consistent with an additive interaction.

[3] = % IC50 0/100: roscovitine 0, gemcitabine 15.00 ng/ml
[4] = % IC50 0/100: roscovitine 0, gemcitabine 11.25 ng/ml
[5] = % IC50 100/0: roscovitine 9.00 ug/ml, gemcitabine 0
[6] = % IC50 100/0: roscovitine 6.75 ug/ml, gemcitabine 0

Compound | % Abs [1, 3] | % Response [1, 3] | % Abs [2, 4] | % Response [2, 4] | % Abs [1, 5] | % Response [1, 5] | % Abs [2, 6] | % Response [2, 6]
Nc1ccn([C@@H]2O[C@H](CO)[C@@H](O)C2(F)F)c(=O)n1 [Gemc., 2′-deoxy-2′,2′-difluorocytidine] | 85.0% | 15.0% | 93.1% | 6.9% | – | – | – | –
CC[C@H](CO)Nc1nc(NCc2ccccc2)c2ncn(C(C)C)c2n1 [Roscovitine, 6-benzylamino-2-[(R)-1-ethyl-2-hydroxyethylamino]-9-isopropylpurine] | – | – | – | – | 64.5% | 35.5% | 83.3% | 16.7%
